Measurements taken from ChEMBL document CHEMBL1153804, “Optimization of a series of quinazolinone-derived antagonists of CXCR3” (Bioorg Med Chem Lett, 2009).

molecular target: T1, C-X-C chemokine receptor type 3 (Homo sapiens, UniProt P49682); test: Displacement of [125I]-1P10 from human CXCR3 expressed in PBMC after 2 hrs in RPMI buffer by scintillation counting
T1 sequence (P49682 whole entry): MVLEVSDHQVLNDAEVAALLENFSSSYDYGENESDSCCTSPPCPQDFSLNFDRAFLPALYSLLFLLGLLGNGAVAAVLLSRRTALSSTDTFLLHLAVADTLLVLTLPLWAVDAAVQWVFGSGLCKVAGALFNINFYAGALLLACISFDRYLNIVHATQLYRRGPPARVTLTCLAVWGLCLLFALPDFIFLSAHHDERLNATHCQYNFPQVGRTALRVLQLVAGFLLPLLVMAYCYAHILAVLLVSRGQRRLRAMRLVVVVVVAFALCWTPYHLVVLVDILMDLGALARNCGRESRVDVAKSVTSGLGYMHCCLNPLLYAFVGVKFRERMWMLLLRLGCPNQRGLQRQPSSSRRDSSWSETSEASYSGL

IC50 [nM] | Compound
2 | CCOc1ccc(-n2c([C@@H](C)N(C[C@H]3CCCN3C(C)C)C(=O)Cc3ccc(F)c(C(F)(F)F)c3)nc3ncccc3c2=O)cc1
690 | CCOc1ccc(-n2c([C@@H](C)N(Cc3cccnc3)C(=O)CN3CCN(CCC(F)(F)F)CC3)nc3ccccc3c2=O)cc1
40 | CCOc1ccc(-n2c([C@@H](C)N(Cc3cccnc3)C(=O)Cc3ccc(F)c(F)c3)nc3ccccc3c2=O)cc1
210 | CCOc1ccc(-n2c([C@@H](C)N(Cc3cccnc3)C(=O)Cc3nc4ccc(C(F)(F)F)cc4[nH]3)nc3ccccc3c2=O)cc1
1 | CCOc1ccc(-n2c([C@@H](C)N(C(=O)Cc3ccc(F)c(C(F)(F)F)c3)C3CCN(C(C)C)CC3)nc3ncccc3c2=O)cc1
5 | CCOc1ccc(-n2c([C@@H](C)N(Cc3cccnc3)C(=O)Cc3ccc(F)c(C(F)(F)F)c3)nc3ncccc3c2=O)cc1
2 | CCOc1ccc(-n2c([C@@H](C)N(Cc3cc(C)no3)C(=O)Cc3ccc(F)c(C(F)(F)F)c3)nc3ncccc3c2=O)cc1
2 | CCOc1ccc(-n2c([C@@H](C)N(CC3CCN(C)CC3)C(=O)Cc3ccc(F)c(C(F)(F)F)c3)nc3ncccc3c2=O)cc1
770 | CCOc1ccc(-n2c([C@@H](C)N(Cc3cccnc3)C(=O)Cc3ccc(S(C)(=O)=O)cc3)nc3ccccc3c2=O)cc1
8 | CCOc1ccc(-n2c([C@@H](C)N(Cc3cccnc3)C(=O)Cc3cc(F)c(F)c(F)c3)nc3ccccc3c2=O)cc1

Second part, the compound before the results:

Compound | IC50 [nM]
CCOc1ccc(-n2c([C@@H](C)N(Cc3cccnc3)C(=O)Cc3cc(C(F)(F)F)cc(C(F)(F)F)c3)nc3ccccc3c2=O)cc1 | 7
CCOc1ccc(-n2c([C@@H](C)N(Cc3cccnc3)C(=O)Cc3ccc(F)c(C(F)(F)F)c3)nc3cccnc3c2=O)cc1 | 110
CCOc1ccc(-n2c([C@@H](C)N(Cc3cccnc3)C(=O)Cn3cnc(C(F)(F)F)c3)nc3ccccc3c2=O)cc1 | 7
CCOc1ccc(-n2c([C@@H](C)N(C(=O)Cc3ccc(F)c(C(F)(F)F)c3)C3CCN(C(C)=O)CC3)nc3ncccc3c2=O)cc1 | 6
CCOc1ccc(-n2c([C@@H](C)N(Cc3cccnc3)C(=O)Cc3cccc(C(F)(F)F)c3)nc3ccccc3c2=O)cc1 | 11
CCOc1ccc(-n2c([C@@H](C)N(Cc3cccnc3)C(=O)Cc3ccc(F)c(C(F)(F)F)c3)nc3nccnc3c2=O)cc1 | 42
CCOc1ccc(-n2c([C@@H](C)N(Cc3cccnc3)C(=O)Cc3ccc(C#N)cc3)nc3ccccc3c2=O)cc1 | 21
CCOc1ccc(-n2c([C@@H](C)N(C[C@H]3CCCN3)C(=O)Cc3ccc(F)c(C(F)(F)F)c3)nc3ncccc3c2=O)cc1 | 2
CCOc1ccc(-n2c([C@@H](C)N(Cc3cccnc3)C(=O)Cc3ccc(F)c(C(F)(F)F)c3)nc3cnccc3c2=O)cc1 | 32
CCOc1ccc(-n2c([C@@H](C)N(C(=O)Cc3ccc(F)c(C(F)(F)F)c3)C3CCOCC3)nc3ncccc3c2=O)cc1 | 5
CCOc1ccc(-n2c([C@@H](C)N(Cc3cccnc3)C(=O)CCc3ccc(C(F)(F)F)cc3)nc3ccccc3c2=O)cc1 | 2090
CCOc1ccc(-n2c([C@@H](C)N(C[C@@H]3CCCN3C(C)C)C(=O)Cc3ccc(F)c(C(F)(F)F)c3)nc3ncccc3c2=O)cc1 | 5
CCOc1ccc(-n2c([C@@H](C)N(Cc3ccc[n+]([O-])c3)C(=O)Cc3ccc(OC(F)(F)F)cc3)nc3ncccc3c2=O)cc1 | 4

system: Blood; test: Drug level in bleomycin-induced mouse blood at 10 mg/mL, sc; assay type: ADME, tissue-based

Drug uptake [ng/mL] | Compound
104 | CCOc1ccc(-n2c([C@@H](C)N(Cc3cccnc3)C(=O)Cc3ccc(OC(F)(F)F)cc3)nc3ncccc3c2=O)cc1

system: Blood; test: Drug level in bleomycin-induced mouse blood at 3 mg/mL, sc; assay type: ADME, tissue-based

Drug uptake [ng/mL] | Compound
26 | CCOc1ccc(-n2c([C@@H](C)N(Cc3cccnc3)C(=O)Cc3ccc(OC(F)(F)F)cc3)nc3ncccc3c2=O)cc1
19 | CCOc1ccc(-n2c([C@@H](C)N(Cc3ccc[n+]([O-])c3)C(=O)Cc3ccc(OC(F)(F)F)cc3)nc3ncccc3c2=O)cc1

system: Blood; test: Drug level in bleomycin-induced mouse blood at 1 mg/mL, sc; assay type: ADME, tissue-based

Drug uptake [ng/mL] | Compound
19 | CCOc1ccc(-n2c([C@@H](C)N(Cc3cccnc3)C(=O)Cc3ccc(OC(F)(F)F)cc3)nc3ncccc3c2=O)cc1
14 | CCOc1ccc(-n2c([C@@H](C)N(Cc3ccc[n+]([O-])c3)C(=O)Cc3ccc(OC(F)(F)F)cc3)nc3ncccc3c2=O)cc1
